{
  "source": "patent US4045488A",
  "about": "“Aminophenyltetralin compounds” (Pfizer Inc., priority 1976, dated 1977)",
  "key": {"[1]": {"test_system": "spontaneous motor activity", "experiment": "spontaneous motor activity in mice (circular actophotometers, activity counts)", "type": "in vivo, mouse", "details": "for hyperactive response: same conditions, 0.32-32 mg./kg. i.p.", "procedure": "(§1) On the other hand, the activity of the compounds of the present invention, as psychomotor stimulants, is based on a variety of tests, including (1) a study of their motor activity in mice and (2) a measurement of their ability to influence the loss of avoidance behavior in rats trained on a non-discriminated (Sidman) avoidance schedule.\nA total of seven mice was employed at each dose level tested (viz., at 0.32, 1.0, 3.2, 10 and 32 mg./kg., i.p., respectively) and these mice were separated one to an activity cage. After an initial 1/2 hour exposure period (for acclimation purposes), each animal in the cage was treated with a sample of the drug intraperitoneally and immediately thereafter returned to said cage, with activity counts every 1/2 hour being recorded from that point on."}, "[2]": {"experiment": "psychotropic (antidepressant, psychomotor stimulant) activity and side effects of the compounds, general statements", "type": "in vivo", "details": "general statement; compounds and their hydrochloride acid addition salts"}, "[3]": {"test_system": "non-discriminated (Sidman) avoidance behavior", "experiment": "non-discriminated (Sidman) avoidance behavior in rats, response rates", "type": "in vivo, rat", "details": "5 and 10 mg./kg. i.p.", "excerpt": "as §1\nEight mature male rats were trained in Lehigh Valley automatic multiple-operant conditioning chambers to avoid a 2.0 mA electric shock that would last for 0.75 second, or terminate sooner if the rat lever became activated during the shock. In these tests, lever presses postponed the onset of shock for an initial period of 30 seconds, while only 10 seconds elapsed between shocks if no intervening response was elicited. The rats were run for a 40-minute control period before receiving the drug and then for approximately 2.5 hours after each treatment."}},
  "note": "Counter-ions that a name gives are not always drawn.",
  "data": [
    {"smiles": "CN[C@@H]1CC[C@@H](c2ccccc2)c2ccccc21", "note": "(relative stereo) [Trans-isomer of Example IV, trans-dl-N-methyl-4-phenyl-1,2,3,4-tetrahydro-1-naphthylamine hydrochloride]", "values": [
      {"measurement": "time course (duration) of effect", "setting": "[1]; after 32 mg./kg.", "result": "especially long-lived"}
    ]},
    {"smiles": "N[C@@H]1CC[C@@H](c2ccccc2)c2ccccc21", "note": "(relative stereo) [trans-dl-4-phenyl-1,2,3,4-tetrahydro-1-naphthylamine]", "values": [
      {"measurement": "antidepressant activity", "setting": "[2]", "result": "markedly high degree of antidepressant activity"}
    ]},
    {"smiles": "CN(C)[C@@H]1CC[C@@H](c2ccccc2)c2ccccc21", "note": "(relative stereo) [trans-dl-N,N-dimethyl-4-phenyl-1,2,3,4-tetrahydro-1-naphthylamine]", "values": [
      {"measurement": "antidepressant activity", "setting": "[2]", "result": "markedly high degree of antidepressant activity"}
    ]},
    {"smiles": "c1ccc([C@@H]2CC[C@@H](NC3CC3)c3ccccc32)cc1", "note": "(relative stereo) [trans-dl-N-cyclopropyl-4-phenyl-1,2,3,4-tetrahydro-1-naphthylamine]", "values": [
      {"measurement": "antidepressant activity", "setting": "[2]", "result": "markedly high degree of antidepressant activity"}
    ]},
    {"smiles": "CCN[C@@H]1CC[C@@H](c2ccccc2)c2ccccc21", "note": "(relative stereo) [trans-dl-N-ethyl-4-phenyl-1,2,3,4-tetrahydro-1-naphthylamine]", "values": [
      {"measurement": "antidepressant activity", "setting": "[2]", "result": "markedly high degree of antidepressant activity"}
    ]},
    {"smiles": "CC(C)N[C@@H]1CC[C@@H](c2ccccc2)c2ccccc21", "note": "(relative stereo) [trans-dl-N-isopropyl-4-phenyl-1,2,3,4-tetrahydro-1-naphthylamine]", "values": [
      {"measurement": "antidepressant activity", "setting": "[2]", "result": "markedly high degree of antidepressant activity"}
    ]},
    {"smiles": "CN[C@@H]1CC[C@@H](c2ccccc2)c2ccccc21", "note": "(relative stereo) [trans-dl-N-methyl-4-phenyl-1,2,3,4-tetrahydro-1-naphthylamine]", "values": [
      {"measurement": "antidepressant activity", "setting": "[2]", "result": "markedly high degree of antidepressant activity"}
    ]},
    {"smiles": "CN[C@@H]1CC[C@@H](c2ccccc2)c2ccccc21", "note": "[Trans-d-isomer of Example III, trans-d-N-Methyl-4-phenyl-1,2,3,4-tetrahydro-1-naphthylamine as the hydrochloride]", "values": [
      {"measurement": "duration of drug effect after administration", "setting": "[3]", "result": "approximately one and a half"},
      {"measurement": "start of drug effect", "setting": "[3]", "result": "≤ 20", "unit": "min"},
      {"measurement": "effect on response rates", "setting": "[3]; in four out of eight rats", "result": "moderate to marked increase in response rates"},
      {"measurement": "increase of response rates over normal pre-drug control levels", "setting": "[3]; in four out of eight rats", "result": "2-6 times"},
      {"measurement": "increase of response rates over pre-drug control levels", "setting": "[3]; in two other rats", "result": "about 1.5 times"},
      {"measurement": "effect on activity counts compared with d-amphetamine sulfate and methylphenidate", "setting": "[1]; 10 mg./kg. i.p. versus d-amphetamine sulfate 3.2 mg./kg. and methylphenidate 10 mg./kg.", "result": "more pronounced than that of d-amphetamine sulfate at 3.2 mg./kg. and surpassing even that of methylphenidate at 10 mg./kg."},
      {"measurement": "effect on activity counts", "setting": "[1]; 10 mg./kg. i.p., 30-60 minutes after treatment", "result": "markedly elevated the activity counts"},
      {"measurement": "time course (duration) of effect", "setting": "[1]; 10 mg./kg. versus d-amphetamine sulfate 3.2 mg./kg.", "result": "even more prolonged in its effect than did that of d-amphetamine sulfate"}
    ]},
    {"smiles": "CN[C@H]1CC[C@H](c2ccccc2)c2ccccc21", "note": "[Trans-l-isomer of Example III, trans-l-N-methyl-4-phenyl-1,2,3,4-tetrahydro-1-naphthylamine hydrochloride]", "values": [
      {"measurement": "stimulant effect", "setting": "[1]; tested at 10 and 32 mg./kg. i.p.", "result": "little evidence of a stimulant effect"}
    ]},
    {"smiles": "CNCCCN1c2ccccc2CCc2ccccc21", "note": "[desmethylimipramine, reference compound]", "values": [
      {"measurement": "hyperactive response", "setting": "[1]", "result": "failed to elicit any hyperactive response whatsoever"}
    ]},
    {"smiles": "CNCCCC1c2ccccc2C=Cc2ccccc21", "note": "[protriptlyine, reference compound]", "values": [
      {"measurement": "hyperactive response", "setting": "[1]", "result": "failed to elicit any hyperactive response whatsoever"}
    ]},
    {"smiles": "CN[C@@H]1CC[C@@H](c2ccccc2)c2ccccc21", "note": "[trans-d-N-methyl-4-phenyl-1,2,3,4-tetrahydro-1-naphthylamine]", "values": [
      {"measurement": "antidepressant activity", "setting": "[2]", "result": "markedly high degree of antidepressant activity"}
    ]}
  ]
}
